Read-outs that look alike come from different tables or passages of the source.
How the values were obtained:
[1] = pKa falling in interval 8-9.6; cited from earlier work
[2] = cited from earlier work
[3] = at 37° C.; cited from earlier work
[4] = smoking a cigarette; cited from earlier work

SMILES	pKa value (in interval 8-9.6) [1]	Solubility in water ([2]; water)	other results
NC(=O)C[C@H](N)C(=O)O [Aspargine]	8.73		
N[C@@H](CS(=O)(=O)O)C(=O)O [Cysteic acid]		Very soluble	
N[C@@H](CCC(=O)O)C(=O)O [Glutamic acid]	9.58		
NC(=O)CC[C@H](N)C(=O)O [Glutamine]		42 g/kg	
N[C@@H](Cc1c[nH]cn1)C(=O)O [Histidine]			Solubility in water [2]: 43.5 g/kg
CC[C@H](C)[C@H](N)C(=O)O [Isoleucine]		34.2 g/kg	
CC(C)C[C@H](N)C(=O)O [Leucine]		22.0 g/kg	
NCCCC[C@H](N)C(=O)O [Lysine]	9.16		Solubility in water [2]: Very soluble^a)b)
CSCC[C@H](N)C(=O)O [Methionine]			Solubility in water [2]: 56 g/kg
N[C@@H](Cc1ccccc1)C(=O)O [Phenylalanine]	9.09	27.9 g/kg	
CC(C)[C@H](N)C(=O)O [Valine]		88.5 g/kg	
CN1CCCC1c1cccnc1 (centres unmarked) [nicotine, 3-(1-methyl-2-pyrrolidinyl)pyridine]			nicotine in the non-charged base form (assuming a pH of the saliva of 6.8): about 10%; nicotine in the free readily absorbable base form (at a pH of 9.0): more than 90%; pKa (acid-base equilibrium of nicotine) [3]: ~7.8; time until nicotine reaches the brain after inhalation [4]: around ten

Reference: patent publication US20080286340A1, “Buffered nicotine containing products” (priority 2007, published 2008)
